# Columns and labels:
# Conditions in all cases: exposure time: 90 min
# 1518 [1] = donor line of iPSC-derived cardiomyocytes; assay: POD (EC05) for increase in Ca2+ transient decay-to-rise ratio (QT prolongation) vs vehicle; higher = less potent (higher point of departure)
# Procedure, shortened: (§1)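 Points of departure specific to each donor were obtained from hierarchical Bayesian Hill fits to vehicle-normalised beat frequency, decay-to-rise ratio or peak frequency. Thresholds were set at 5% change, or 95% loss in the case of peak frequency. The cells were human iPSC-derived cardiomyocytes from 16 donors, exposed for 90 min at 37 °C to 0.1, 1, 10 and 100 µM (final, 0.5% DMSO), with Ca2+ flux read on a FLIPR Tetra before and after exposure.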
# 1516 [2] = donor line of iPSC-derived cardiomyocytes; assay: as above
# Procedure, shortened: as §1
# 1531 [3] = donor line of iPSC-derived cardiomyocytes; assay: as above
# Procedure, shortened: as §1
# 1518 [4] = assay: POD (EC95) for loss of peak frequency (asystole) vs vehicle; higher = less potent (higher point of departure)
# Method: (§2)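 Human iPSC-derived cardiomyocytes from 16 donors were exposed for 90 min at 37 °C to each PFAS at 0.1, 1, 10 and 100 µM in 0.5% DMSO, 384-well plates. Kinetic Ca2+ flux (FLIPR) and Hoechst nuclei counts were normalised to vehicle wells and fitted with a hierarchical Bayesian Hill model to give donor-specific PODs: EC05 for beat-rate increase or decrease and for decay-to-rise ratio increase (QT proxy), EC95 for peak-frequency loss (asystole), EC10 for total cell number loss. 0.03 µM is the lower bound.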
# 1118 = donor line of iPSC-derived cardiomyocytes; assay: as above
# Method: as §2
# 11235 = donor line of iPSC-derived cardiomyocytes; assay: as above
# Method: as §2
# 1434 = donor line of iPSC-derived cardiomyocytes; assay: as above
# Method: as §2
# 1083 = donor line of iPSC-derived cardiomyocytes; assay: as above
# Method: as §2
# 1535 = donor line of iPSC-derived cardiomyocytes; assay: as above
# Method: as §2
# 1392 = donor line of iPSC-derived cardiomyocytes; assay: as above
# Method: as §2
# 1309 = donor line of iPSC-derived cardiomyocytes; assay: as above
# Method: as §2
# 1516 [5] = assay: as above
# Method: as §2
# 30171 = donor line of iPSC-derived cardiomyocytes; assay: as above
# Method: as §2
# 20084 = donor line of iPSC-derived cardiomyocytes; assay: as above
# Method: as §2
# 1565 = donor line of iPSC-derived cardiomyocytes; assay: as above
# Method: as §2
# 1368 = donor line of iPSC-derived cardiomyocytes; assay: as above
# Method: as §2
# 20032 = donor line of iPSC-derived cardiomyocytes; assay: as above
# Method: as §2
# 30145 [6] = donor line of iPSC-derived cardiomyocytes; assay: as above
# Method: as §2
# 1531 [7] = assay: as above
# Method: as §2
# 30145 [8] = assay: POD (EC05) for increase in beat frequency (positive chronotrope) vs vehicle; higher = less potent (higher point of departure)
# Procedure, shortened: as §1
Structure (SMILES),POD vs vehicle 1518 [1],POD vs vehicle 1516 [2],POD vs vehicle 1531 [3],POD vs vehicle 1518 [4],POD vs vehicle 1118,POD vs vehicle 11235,POD vs vehicle 1434,POD vs vehicle 1083,POD vs vehicle 1535,POD vs vehicle 1392,POD vs vehicle 1309,POD vs vehicle 1516 [5],POD vs vehicle 30171,POD vs vehicle 20084,POD vs vehicle 1565,POD vs vehicle 1368,POD vs vehicle 20032,POD vs vehicle 30145 [6],POD vs vehicle 1531 [7],POD vs vehicle 30145 [8]
O=S(=O)(O)C(F)(F)C(F)(F)C(F)(F)C(F)(F)C(F)(F)C(F)(F)C(F)(F)C(F)(F)F [Perfluorooctanesulfonic_acid],> 100 µM,> 100 µM,> 100 µM,> 100 µM,> 100 µM,12.5 µM,> 100 µM,> 100 µM,> 100 µM,> 100 µM,> 100 µM,> 100 µM,> 100 µM,> 100 µM,> 100 µM,> 100 µM,> 100 µM,> 100 µM,> 100 µM,> 100 µM
O=C(O)C(F)(F)C(F)(F)OC(F)(F)F [Perfluoro-3-methoxypropanoic_acid],> 100 µM,> 100 µM,> 100 µM,> 100 µM,> 100 µM,> 100 µM,> 100 µM,> 100 µM,> 100 µM,> 100 µM,> 100 µM,> 100 µM,> 100 µM,> 100 µM,> 100 µM,> 100 µM,> 100 µM,> 100 µM,> 100 µM,> 100 µM
O=C(O)C(F)(F)C(F)(F)C(F)(F)C(F)(F)F [Perfluoropentanoic_acid],> 100 µM,> 100 µM,> 100 µM,> 100 µM,> 100 µM,> 100 µM,> 100 µM,> 100 µM,> 100 µM,> 100 µM,> 100 µM,> 100 µM,> 100 µM,> 100 µM,> 100 µM,> 100 µM,> 100 µM,> 100 µM,> 100 µM,> 100 µM
O=C(O)C(F)(F)C(F)(F)C(F)(F)F [Perfluorobutanoic_acid],> 100 µM,> 100 µM,> 100 µM,> 100 µM,> 100 µM,> 100 µM,> 100 µM,> 100 µM,> 100 µM,> 100 µM,> 100 µM,> 100 µM,> 100 µM,> 100 µM,> 100 µM,> 100 µM,> 100 µM,> 100 µM,> 100 µM,> 100 µM
"OCC(O)CC(F)(F)C(F)(F)C(F)(F)C(F)(F)C(F)(F)C(F)(F)C(F)(F)C(F)(F)F (stereo not given) [1-(Perfluorofluorooctyl)propane-2,3-diol]",> 100 µM,> 100 µM,> 100 µM,> 100 µM,1.19 µM,> 100 µM,> 100 µM,> 100 µM,> 100 µM,> 100 µM,> 100 µM,> 100 µM,> 100 µM,> 100 µM,> 100 µM,> 100 µM,> 100 µM,> 100 µM,> 100 µM,> 100 µM
O=C(O)C(F)(F)C(F)(F)C(F)(F)OC(F)(F)F [Perfluoro(4-methoxybutanoic)_acid],> 100 µM,> 100 µM,> 100 µM,> 100 µM,> 100 µM,> 100 µM,> 100 µM,> 100 µM,> 100 µM,> 100 µM,> 100 µM,> 100 µM,> 100 µM,> 100 µM,> 100 µM,> 100 µM,> 100 µM,> 100 µM,> 100 µM,> 100 µM
OCCC(F)(F)C(F)(F)C(F)(F)C(F)(F)C(F)(F)C(F)(F)F [6:2 Fluorotelomer alcohol],> 100 µM,> 100 µM,> 100 µM,> 100 µM,> 100 µM,> 100 µM,> 100 µM,> 100 µM,> 100 µM,> 100 µM,> 100 µM,> 100 µM,> 100 µM,> 100 µM,> 100 µM,> 100 µM,> 100 µM,> 100 µM,> 100 µM,> 100 µM
O=S(=O)(O)CCC(F)(F)C(F)(F)C(F)(F)C(F)(F)C(F)(F)C(F)(F)C(F)(F)C(F)(F)F [8:2 Fluorotelomer sulfonic acid],> 100 µM,38 µM,47.4 µM,> 100 µM,> 100 µM,> 100 µM,> 100 µM,> 100 µM,> 100 µM,> 100 µM,> 100 µM,> 100 µM,> 100 µM,> 100 µM,> 100 µM,> 100 µM,> 100 µM,89.3 µM,16.5 µM,> 100 µM
OCCC(F)(F)C(F)(F)C(F)(F)C(F)(F)C(F)(F)C(F)(F)C(F)(F)C(F)(F)F [8:2 Fluorotelomer alcohol],> 100 µM,> 100 µM,> 100 µM,> 100 µM,> 100 µM,> 100 µM,> 100 µM,> 100 µM,> 100 µM,> 100 µM,> 100 µM,> 100 µM,> 100 µM,> 100 µM,> 100 µM,> 100 µM,> 100 µM,> 100 µM,> 100 µM,> 100 µM
O=C(O)C(F)(F)C(F)(F)C(F)(F)C(F)(F)C(F)(F)F [Perfluorohexanoic_acid],> 100 µM,> 100 µM,> 100 µM,> 100 µM,> 100 µM,> 100 µM,> 100 µM,> 100 µM,> 100 µM,> 100 µM,> 100 µM,> 100 µM,> 100 µM,> 100 µM,> 100 µM,> 100 µM,> 100 µM,> 100 µM,> 100 µM,> 100 µM
O=S(=O)(O)C(F)(F)C(F)(F)C(F)(F)C(F)(F)C(F)(F)C(F)(F)F [Perfluorohexanesulfonic_acid],> 100 µM,> 100 µM,> 100 µM,> 100 µM,> 100 µM,> 100 µM,> 100 µM,> 100 µM,> 100 µM,> 100 µM,> 100 µM,> 100 µM,> 100 µM,> 100 µM,> 100 µM,> 100 µM,> 100 µM,> 100 µM,> 100 µM,> 100 µM
O=C(O)C(F)(F)C(F)(F)C(F)(F)C(F)(F)C(F)(F)C(F)(F)C(F)(F)C(F)(F)C(F)(F)C(F)(F)F [Perfluoroundecanoic_acid],17.4 µM,> 100 µM,> 100 µM,> 100 µM,> 100 µM,95.4 µM,> 100 µM,> 100 µM,> 100 µM,> 100 µM,> 100 µM,> 100 µM,> 100 µM,> 100 µM,> 100 µM,> 100 µM,> 100 µM,> 100 µM,> 100 µM,> 100 µM
O=C(O)C(F)(F)C(F)(F)F [Perfluoropropanoic_acid],> 100 µM,> 100 µM,0.307 µM,> 100 µM,> 100 µM,> 100 µM,> 100 µM,> 100 µM,> 100 µM,> 100 µM,> 100 µM,> 100 µM,> 100 µM,> 100 µM,> 100 µM,> 100 µM,> 100 µM,> 100 µM,> 100 µM,> 100 µM
O=C(O)CCC(F)(F)C(F)(F)C(F)(F)C(F)(F)C(F)(F)C(F)(F)C(F)(F)F [3-Perfluoroheptylpropanoic_acid],> 100 µM,> 100 µM,25.4 µM,> 100 µM,59.8 µM,84.8 µM,90.9 µM,> 100 µM,> 100 µM,> 100 µM,> 100 µM,> 100 µM,> 100 µM,> 100 µM,> 100 µM,> 100 µM,> 100 µM,> 100 µM,> 100 µM,> 100 µM

# — the supplement of paper PMC11368000
